Laboratory results: article PMC3744530, “CTA095, a Novel Etk and Src Dual Inhibitor, Induces Apoptosis in Prostate Cancer Cells and Overcomes Resistance to Src Inhibitors” (PLoS ONE, 2013)

How the values were obtained:
Assay type in all cases: biochemical
Etk = target: T1, Etk (Homo sapiens, UniProt P51813); test: Kinase inhibition assay (TLC, 33P-ATP); settings: for IC50: Etk
T1 construct: purchased Millipore Inc (Dundee, UK)
T1 sequence (P51813 1-675): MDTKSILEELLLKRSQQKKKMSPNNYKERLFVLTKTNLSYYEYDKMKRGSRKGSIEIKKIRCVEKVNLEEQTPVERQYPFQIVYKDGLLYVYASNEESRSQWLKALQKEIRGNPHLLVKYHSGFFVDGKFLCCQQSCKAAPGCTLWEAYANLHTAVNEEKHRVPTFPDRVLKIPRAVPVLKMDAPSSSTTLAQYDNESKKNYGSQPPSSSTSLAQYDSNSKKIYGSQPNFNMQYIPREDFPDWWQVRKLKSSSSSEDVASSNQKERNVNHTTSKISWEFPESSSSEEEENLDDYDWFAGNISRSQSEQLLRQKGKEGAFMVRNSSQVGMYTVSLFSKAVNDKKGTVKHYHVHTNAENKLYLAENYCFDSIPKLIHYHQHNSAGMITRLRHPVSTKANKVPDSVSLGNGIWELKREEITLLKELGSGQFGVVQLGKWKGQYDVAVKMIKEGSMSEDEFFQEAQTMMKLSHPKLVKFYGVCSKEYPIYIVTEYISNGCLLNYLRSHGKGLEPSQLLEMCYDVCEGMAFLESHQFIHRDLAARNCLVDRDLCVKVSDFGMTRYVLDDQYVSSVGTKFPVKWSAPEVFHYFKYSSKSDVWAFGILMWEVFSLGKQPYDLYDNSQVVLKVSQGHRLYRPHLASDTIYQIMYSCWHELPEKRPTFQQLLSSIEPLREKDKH
Experimental: (§1) Kinase inhibition was measured using thin-layer-chromatography (TLC). Briefly, purified kinases (20 nM), the corresponding substrate (500 µM, TSFYGRH for Etk, YIYGSFK for the other kinases), and CTA095 (0–10 µM) were incubated in a kinase reaction (100 mM Hepes, pH 7.4, 10 mM MnCl2, 10 mM MgCl2, 1 mM DTT) for 5 min, and the reaction was started by adding 5 μCi ^33P-labeled ATP. The reaction (10 µl) was incubated at room temperature for 1 h and was stopped by adding 10 μL H3PO4. The radioactivity of the peptide substrate was analyzed using TLC as previously described.
Having isolated a small molecule that inhibits Etk, the next logical step was to determine its specificity for this enzyme. To accomplish this, purified Etk, Btk, Src and Yes were incubated in a kinase reaction buffer with CTA095 (0–1 μM) in the presence of ^33P-labeled ATP and a peptide (YIYGSFK), previously shown to be an excellent substrate for both BTK and Src family kinases. The kinase activity was measured using TLC technique.

Mer = target: T2, Mer (Homo sapiens, UniProt Q12866); test: Kinase inhibition assay (TLC)
T2 construct: purchased Millipore Inc (Dundee, UK)
T2 sequence (Q12866 21-999): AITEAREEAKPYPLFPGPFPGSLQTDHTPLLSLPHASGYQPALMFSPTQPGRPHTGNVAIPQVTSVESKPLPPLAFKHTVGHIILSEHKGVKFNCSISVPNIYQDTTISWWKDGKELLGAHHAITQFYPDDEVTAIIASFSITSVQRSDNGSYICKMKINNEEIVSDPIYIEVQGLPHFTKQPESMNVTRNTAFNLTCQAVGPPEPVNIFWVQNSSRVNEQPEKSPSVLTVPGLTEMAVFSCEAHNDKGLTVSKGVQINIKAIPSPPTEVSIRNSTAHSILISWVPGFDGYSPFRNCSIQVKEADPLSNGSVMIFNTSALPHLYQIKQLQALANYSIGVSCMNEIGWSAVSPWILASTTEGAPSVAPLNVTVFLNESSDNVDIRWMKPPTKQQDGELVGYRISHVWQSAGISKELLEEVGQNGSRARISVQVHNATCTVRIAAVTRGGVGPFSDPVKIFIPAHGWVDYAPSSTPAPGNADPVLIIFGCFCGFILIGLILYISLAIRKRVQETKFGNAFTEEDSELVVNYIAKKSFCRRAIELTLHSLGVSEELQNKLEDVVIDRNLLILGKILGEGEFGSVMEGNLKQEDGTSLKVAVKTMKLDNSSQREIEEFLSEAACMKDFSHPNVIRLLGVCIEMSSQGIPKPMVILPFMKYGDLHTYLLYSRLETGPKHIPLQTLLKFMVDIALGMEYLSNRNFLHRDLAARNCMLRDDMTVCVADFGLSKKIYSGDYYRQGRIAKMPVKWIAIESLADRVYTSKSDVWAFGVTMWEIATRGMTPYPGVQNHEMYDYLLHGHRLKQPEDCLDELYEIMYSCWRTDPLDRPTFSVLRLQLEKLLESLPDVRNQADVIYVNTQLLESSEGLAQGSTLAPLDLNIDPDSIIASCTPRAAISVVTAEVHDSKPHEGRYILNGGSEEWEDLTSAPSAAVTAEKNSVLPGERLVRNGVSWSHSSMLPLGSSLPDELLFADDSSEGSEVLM
Experimental: as §1
(§2) In addition to the Btk family tyrosine kinases, the inhibitory activity of CTA095 to other kinases, including Lyn, Axl, Mer, EGFR, and Abl, was investigated using a TLC assay.

EGFR = EGFR (Homo sapiens, UniProt P00533); test: Kinase inhibition assay (TLC)
Sequence of EGFR (P00533 25-1210, species assumed): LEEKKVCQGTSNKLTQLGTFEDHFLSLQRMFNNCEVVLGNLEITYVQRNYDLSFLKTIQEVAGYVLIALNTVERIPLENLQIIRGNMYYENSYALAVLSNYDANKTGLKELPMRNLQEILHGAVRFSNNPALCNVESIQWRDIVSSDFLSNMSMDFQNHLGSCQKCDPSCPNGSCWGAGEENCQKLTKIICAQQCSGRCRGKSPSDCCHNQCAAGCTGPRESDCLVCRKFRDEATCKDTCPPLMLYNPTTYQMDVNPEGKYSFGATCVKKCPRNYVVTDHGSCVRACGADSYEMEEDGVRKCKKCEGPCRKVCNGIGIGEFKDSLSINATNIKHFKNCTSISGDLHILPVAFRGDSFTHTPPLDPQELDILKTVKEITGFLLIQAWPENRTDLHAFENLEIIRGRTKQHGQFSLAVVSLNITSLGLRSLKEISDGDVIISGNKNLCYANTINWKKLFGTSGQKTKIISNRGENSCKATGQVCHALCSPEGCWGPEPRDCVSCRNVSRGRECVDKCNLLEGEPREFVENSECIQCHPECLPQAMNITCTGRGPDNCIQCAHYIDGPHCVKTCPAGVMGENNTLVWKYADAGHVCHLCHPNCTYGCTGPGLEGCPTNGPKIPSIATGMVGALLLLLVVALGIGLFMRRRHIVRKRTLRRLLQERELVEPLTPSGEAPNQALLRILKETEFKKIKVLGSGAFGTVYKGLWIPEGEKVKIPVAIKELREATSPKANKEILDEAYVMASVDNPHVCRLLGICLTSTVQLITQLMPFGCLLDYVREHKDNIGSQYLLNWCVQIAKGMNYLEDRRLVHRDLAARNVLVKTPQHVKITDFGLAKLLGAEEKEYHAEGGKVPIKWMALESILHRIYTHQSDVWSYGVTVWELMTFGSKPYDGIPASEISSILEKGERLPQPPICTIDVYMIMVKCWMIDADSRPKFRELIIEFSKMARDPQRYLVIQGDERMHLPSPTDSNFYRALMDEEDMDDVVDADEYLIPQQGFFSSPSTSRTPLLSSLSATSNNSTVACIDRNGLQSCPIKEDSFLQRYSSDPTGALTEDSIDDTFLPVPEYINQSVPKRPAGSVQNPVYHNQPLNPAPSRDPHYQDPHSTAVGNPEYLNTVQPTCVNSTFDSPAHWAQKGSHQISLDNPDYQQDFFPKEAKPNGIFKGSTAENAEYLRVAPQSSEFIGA
Experimental: as §1, §2

Axl = Axl (Homo sapiens, UniProt P30530); test: Kinase inhibition assay (TLC)
Sequence of Axl (P30530 26-894, species assumed): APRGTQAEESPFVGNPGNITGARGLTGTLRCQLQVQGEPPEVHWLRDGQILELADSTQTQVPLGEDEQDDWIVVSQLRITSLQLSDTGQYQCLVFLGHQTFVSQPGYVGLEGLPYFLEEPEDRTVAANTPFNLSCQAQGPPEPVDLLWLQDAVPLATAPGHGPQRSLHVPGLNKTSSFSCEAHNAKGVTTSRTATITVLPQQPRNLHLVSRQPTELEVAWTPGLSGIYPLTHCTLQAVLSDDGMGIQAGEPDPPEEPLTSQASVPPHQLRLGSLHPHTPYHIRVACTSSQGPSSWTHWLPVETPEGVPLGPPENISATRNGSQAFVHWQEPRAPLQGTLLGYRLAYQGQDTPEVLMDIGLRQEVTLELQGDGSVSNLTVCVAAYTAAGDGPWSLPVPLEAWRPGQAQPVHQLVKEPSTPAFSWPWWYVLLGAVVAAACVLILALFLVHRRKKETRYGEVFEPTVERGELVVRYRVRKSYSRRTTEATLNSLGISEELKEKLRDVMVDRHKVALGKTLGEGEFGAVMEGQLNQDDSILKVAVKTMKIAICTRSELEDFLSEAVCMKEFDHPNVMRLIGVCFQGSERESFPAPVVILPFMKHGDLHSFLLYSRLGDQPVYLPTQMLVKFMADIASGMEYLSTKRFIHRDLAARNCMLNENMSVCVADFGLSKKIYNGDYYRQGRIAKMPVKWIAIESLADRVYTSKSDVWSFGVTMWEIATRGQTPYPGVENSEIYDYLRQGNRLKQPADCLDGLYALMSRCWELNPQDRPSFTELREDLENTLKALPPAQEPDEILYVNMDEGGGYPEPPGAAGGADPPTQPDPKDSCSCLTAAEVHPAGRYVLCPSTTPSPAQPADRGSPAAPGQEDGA
Experimental: as §1, §2

Itk = Itk (Homo sapiens, UniProt Q08881); test: Kinase inhibition assay (TLC)
Experimental: as §1, §2

Abl = Abl (Homo sapiens, UniProt P00519); test: Kinase inhibition assay (TLC)
Sequence of Abl (P00519 whole entry, species assumed): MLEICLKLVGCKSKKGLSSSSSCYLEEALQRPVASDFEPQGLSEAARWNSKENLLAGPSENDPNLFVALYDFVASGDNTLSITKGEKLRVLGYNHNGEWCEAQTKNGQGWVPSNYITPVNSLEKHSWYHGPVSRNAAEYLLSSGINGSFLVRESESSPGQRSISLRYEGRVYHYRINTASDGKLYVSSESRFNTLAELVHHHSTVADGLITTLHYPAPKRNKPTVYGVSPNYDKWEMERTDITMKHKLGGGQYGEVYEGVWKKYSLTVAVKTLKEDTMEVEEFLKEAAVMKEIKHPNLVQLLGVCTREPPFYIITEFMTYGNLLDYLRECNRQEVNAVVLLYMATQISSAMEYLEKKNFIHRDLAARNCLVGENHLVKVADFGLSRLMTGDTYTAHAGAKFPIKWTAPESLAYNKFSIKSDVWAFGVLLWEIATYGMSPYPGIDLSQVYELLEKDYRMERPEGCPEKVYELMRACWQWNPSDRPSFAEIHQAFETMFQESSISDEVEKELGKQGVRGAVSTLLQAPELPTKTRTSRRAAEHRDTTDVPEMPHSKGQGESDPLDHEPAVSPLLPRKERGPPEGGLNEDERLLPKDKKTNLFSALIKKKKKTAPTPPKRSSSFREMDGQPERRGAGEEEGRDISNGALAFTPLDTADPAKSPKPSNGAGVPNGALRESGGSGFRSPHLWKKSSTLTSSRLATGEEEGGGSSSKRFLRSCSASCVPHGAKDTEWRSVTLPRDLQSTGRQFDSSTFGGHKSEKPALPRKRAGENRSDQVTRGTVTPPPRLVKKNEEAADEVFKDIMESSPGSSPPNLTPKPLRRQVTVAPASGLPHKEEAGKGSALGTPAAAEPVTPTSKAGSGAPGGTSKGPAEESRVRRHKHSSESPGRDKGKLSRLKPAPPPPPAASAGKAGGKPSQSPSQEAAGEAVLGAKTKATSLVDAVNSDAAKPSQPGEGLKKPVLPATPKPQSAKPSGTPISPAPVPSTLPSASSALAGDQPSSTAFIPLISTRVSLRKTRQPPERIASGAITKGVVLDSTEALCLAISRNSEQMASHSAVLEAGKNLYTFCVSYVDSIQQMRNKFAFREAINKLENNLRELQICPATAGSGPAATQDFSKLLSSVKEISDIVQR
Experimental: as §1, §2

Lyn = Lyn (Homo sapiens, UniProt P07948); test: Kinase inhibition assay (TLC)
Sequence of Lyn (P07948 whole entry, species assumed): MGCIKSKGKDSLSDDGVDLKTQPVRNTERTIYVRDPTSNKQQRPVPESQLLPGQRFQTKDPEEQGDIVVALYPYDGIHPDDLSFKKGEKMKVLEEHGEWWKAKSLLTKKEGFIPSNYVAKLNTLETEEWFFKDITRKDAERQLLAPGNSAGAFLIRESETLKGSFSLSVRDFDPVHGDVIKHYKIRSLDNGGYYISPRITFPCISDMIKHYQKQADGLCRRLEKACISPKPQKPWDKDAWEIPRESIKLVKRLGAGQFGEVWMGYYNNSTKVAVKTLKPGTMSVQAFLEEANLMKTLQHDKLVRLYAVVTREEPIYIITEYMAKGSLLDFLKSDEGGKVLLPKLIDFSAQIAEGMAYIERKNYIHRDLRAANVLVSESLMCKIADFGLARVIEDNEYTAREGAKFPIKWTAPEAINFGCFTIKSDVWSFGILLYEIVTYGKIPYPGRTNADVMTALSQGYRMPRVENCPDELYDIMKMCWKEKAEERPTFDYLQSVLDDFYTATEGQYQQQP
Experimental: as §1, §2

IC50 (Etk; TLC assay): 0.06 µM
IC50 (Etk; TLC, peptide YIYGSFK, 33P-ATP): ~0.06 µM
Etk inhibition (Etk; compound 1 μM, Etk 20 nM, compared with other CT compounds): significant Etk inhibition
IC50 (Mer): > 10 µM
IC50 (EGFR): > 10 µM
IC50 (Axl): > 10 µM
IC50 (Itk): > 10 µM
IC50 (Abl): > 10 µM
IC50 (Lyn): > 10 µM
SMILES: O=c1[nH]c2cc3nc(-c4ccc5oc6ccccc6c5c4)n(CCCN4CCCCC4)c3cc2nc1-c1ccccc1 [CTA095, 2-(dibenzo[b,d]furan-2-yl)-7-phenyl-1-(3-(piperidin-1-yl)propyl)-1H-imidazo[4,5-g]quinoxalin-6(5H)-one]
